Laboratory results from patent US20150086530A1, “DOSING REGIMENS FOR THE TREATMENT OF POMPE DISEASE” (Amicus Therapeutics, Inc., priority 2012, published 2015).

Columns and labels:
[1] = Safety assessment in Pompe patients (adverse events, urine Hex4, CPK, ALT/AST, muscle strength); format: in vivo, human; conditions: for Adverse event: Intensity / Adverse event: Relation to Study Drug? / Adverse event: Was Event Serious?: per adverse event
Description: Dose escalation to the next dose level of 1-deoxynojirimycin hydrochloride may proceed following review of safety and tolerability data from the previous dose level group(s). Safety data reviewed will include adverse events (including infusion reactions), clinical laboratory tests (including creatine kinase, LDH (LDH-5), alkaline phosphatase, AST, ALT), Hex4, 12-Lead ECGs, physical examinations, muscle strength tests and vital signs.
Safety parameters will be assessed by review of changes in physical exam findings, vital signs, ECG changes over time, clinical labs, Hex4 and adverse events.
Blood samples for clinical laboratory tests (hematology, serum chemistry) and urinalyses will be collected according to the schedule in Table 1. • Hematology tests include total hemoglobin, hematocrit, erythrocyte, platelet and leukocyte counts with differential. • Coagulation (screening only) includes INR and aPTT. • Serum chemistry includes measurement of AST, ALT, alkaline phosphatase, total bilirubin, creatinine, creatine kinase, urea, glucose, calcium, sodium, potassium, magnesium, total protein, albumin, bicarbonate, LDH (LDH-5), blood urea nitrogen, chloride, and phosphate. • Urinalysis includes color, appearance, specific gravity, pH, protein, glucose, ketones, blood, leukocyte esterase, nitrite, bilirubin, urobilinogen and microscopy of sediment
Muscular strength tests, assessed by hand held dynamometer, will be conducted at Screening, Days −1 and 7 of each period and at Follow-up. Proximal and distal muscle groups will be evaluated.

[2] = Plasma and tissue distribution of 1-DNJ and N-butyl-DNJ in wild type C57BL/6 mice; conditions: mouse, in vivo, oral 100 mg/kg
Method: Eight-week old wild type C57BL/6 mice where administered an oral dose of 100 mg/kg of 1-DNJ or N-butyl-DNJ. […] The concentration of drug in plasma is expressed as ng/ml. The concentration of drug in tissue samples is expressed as ng/g.

GAA [3] = target: T1, GAA (Homo sapiens, UniProt P10253); test: Total rhGAA protein in plasma by Western blot in Pompe patients; format: in vivo; set-up: purchased Genzyme Corporation; conditions: Cohorts 1 and 2; 50 mg and 100 mg AT2220
Method: Concentrations of 1-deoxynojirimycin hydrochloride in blood samples will be measured in plasma using a validated LC-MS/MS assay. GAA activity in plasma will be determined by a validated assay measuring enzyme activity using 4-MUG, with and without Con A. GAA protein levels will be measured by Western blotting using anti-human GAA antibody.
The study was conducted essentially according to the methods described in Example 1. Cohort 1 comprised 4 subjects. Cohort 2 comprised 6 subjects. Each subject received alglucosidase alfa alone as an intravenous infusion in Period 1 and a single 50 mg dose (Cohort 1) or 100 mg (Cohort 2) of 1-deoxynojirimycin hydrochloride one hour before initiation of an intravenous infusion of alglucosidase alfa in Period 2. The genotype, including nucleotide and amino acid changes, for each subject (where available) is shown below: […]

GAA [4] = target: T1, GAA; test: Stability of rhGAA activity in human blood; format: in vitro ADME; set-up: purchased Genzyme Corporation; conditions: presence of 1-deoxynojirimycin hydrochloride; 24 hour period
Description: 1-deoxynojirimycin hydrochloride stabilizes rhGAA in vitro and in vivo.

GAA [5] = target: T1, GAA; test: GAA enzyme activity in muscle biopsies (Day 3 or 7) of Pompe patients; format: in vivo; set-up: tissue Genzyme Corporation; host or cells: skeletal muscle biopsies and WBC (PBMC) of Pompe patients after infusion of alglucosidase alfa (Myozyme/Lumizyme); conditions: for increase in muscle rhGAA activity relative to rhGAA alone, individual patients: Day 7 biopsies
Description: On Day 7, subjects will have the following assessments performed: adverse event assessment, concomitant medications, physical exam, vital signs, clinical laboratory tests (including creatine kinase, LDH (LDH-5), alkaline phosphatase, AST, ALT), Hex4 and muscle strength tests. A muscle biopsy will be collected from which GAA enzyme activity will be determined. A blood sample for plasma and WBC GAA enzyme level determinations will also be collected.
A muscle biopsy will also be collected from which GAA enzyme activity and 1-deoxynojirimycin hydrochloride levels will be determined, on Day 3.
GAA enzyme activity will be examined in muscle biopsy samples. One piece of muscle tissue will be removed as described in Table 1. GAA activity in muscle will be determined by a validated assay measuring enzyme activity using 4-MUG, with and without Con A. GAA protein levels will be measured by Western blotting using anti-human GAA antibody. 1-deoxynojirimycin hydrochloride concentrations in muscle samples collected in Period 2 will be determined using a validated LC-MS/MS assay.
Another objective of the study was to assess the effects of various doses of 1-deoxynojirimycin hydrochloride on the GAA activity. This was evaluated by measuring the GAA enzyme activity and protein levels in skeletal muscle at Day 3 and/or Day 7 following a single intravenous infusion with alglucosidase alfa alone and after pre-administration of single ascending oral doses of 1-deoxynojirimycin hydrochloride.
The study enrolled male and female patients who had been on a stable dose and regimen of ERT for at least three months. All patients were given a regularly scheduled ERT infusion. One hour prior to the initiation of the next ERT infusion, patients received a single oral dose of AT2220. Plasma rhGAA activity and protein levels were evaluated during each infusion. Each patient underwent muscle biopsies three or seven days after each infusion to measure tissue GAA enzyme activity with and without the chaperone, as well as to measure the level of AT2220 in the muscle.

Compound: OC[C@H]1NC[C@H](O)[C@@H](O)[C@@H]1O [AT2220, (2R,3R,4R,5S)-2-hydroxymethyl-piperidine-3,4,5-triol]
- Adverse event: Intensity ([1]; Cohort 1 (50 mg 1-DNJ-HCl)): Mild
- Adverse event: Relation to Study Drug? ([1]; Cohort 1 (50 mg 1-DNJ-HCl)): Unrelated
- Adverse event: Was Event Serious? ([1]; Cohort 1 (50 mg 1-DNJ-HCl)): No
- ALT/AST ([1]; Cohort 1 (50 mg), 4 subjects): No drug related elevations
- CPK ([1]; Cohort 1 (50 mg), 4 subjects): no drug related elevations beyond subjects' baseline values range
- Muscle strength ([1]; Cohort 1 (50 mg), 4 subjects): No change between Periods 1 and 2
- SAE / drug-related AEs ([1]; Cohort 1 (50 mg), 4 subjects): No SAE or drug-related AEs
- Urine Hex4 ([1]; Cohort 1 (50 mg), 4 subjects): no drug related elevations
- Adverse event: Intensity ([1]; Cohort 2 (100 mg 1-DNJ-HCl)): Mild
- Adverse event: Relation to Study Drug? ([1]; Cohort 2 (100 mg 1-DNJ-HCl)): Unrelated
- Adverse event: Was Event Serious? ([1]; Cohort 2 (100 mg 1-DNJ-HCl)): No
- ALT/AST ([1]; Cohort 2 (100 mg), 5 subjects): No drug related elevations
- CPK ([1]; Cohort 2 (100 mg), 5 subjects): no drug related elevations beyond subjects' baseline range
- Hex4 ([1]; Cohort 2 (100 mg), 5 subjects): no drug related elevations
- Muscle strength ([1]; Cohort 2 (100 mg), 5 subjects): No change between Periods 1 and 2
- SAE / drug-related AEs ([1]; Cohort 2 (100 mg), 5 subjects): No SAE or drug-related AEs
- Adverse Event ([1]; Cohort 2 (rhGAA alone, then rhGAA + 100 mg 1-DNJ-HCl), per patient): None
- CPK levels ([1]; Cohorts 1 and 2): did not appreciably change from baseline
- relation of reported adverse events to drug ([1]; Cohorts 1 and 2, only mild, transient adverse events reported): none of which were related to AT2220
- urine hex 4 levels ([1]; following a single dose of AT2220, Cohorts 1 and 2): either did not change from baseline, or did not show any consistent trend
- tolerability ([1]; single doses co-administered with ERT, Cohorts 1-4 (50-600 mg)): well-tolerated, with no drug-related adverse events reported
- safety and tolerability ([1]; single doses of 50 mg and 100 mg, patients with Pompe Disease): safe and well-tolerated
- Cmax [2]: 120 µM
- total plasma rhGAA protein by Western blot (GAA [3]): dose-related increases
- loss of rhGAA enzymatic activity in human blood (GAA [4]): no measurable loss in enzymatic activity
- change in GAA enzyme activity in muscle (GAA [5]; Cohort 1 (50 mg), day 7): no consistent change
- increase in muscle rhGAA activity relative to rhGAA alone, individual patients (GAA [5]; Cohort 1, 50 mg AT2220): no change
- increase in muscle rhGAA activity relative to rhGAA alone, individual patients (GAA [5]; Cohort 2, 100 mg AT2220): no change
- GAA enzyme uptake into muscle tissue vs ERT alone (GAA [5]; Cohorts 2, 3 and 4 (100, 250, 600 mg)): more enzyme is taken up into muscle tissue
